# Test results: patent US20230114107A1, “COMBINATION ANTI-CANCER THERAPIES WITH INDUCERS OF IRON-DEPENDENT CELLULAR DISASSEMBLY” (Flagship Pioneering Innovations V, Inc., priority 2019, published 2023)
# Test system: NFKB reporter in THP1-Dual cells
# Assay: NFKB reporter activity in THP1-Dual monocytes co-cultured with treated Caki-1 cells
# Format: cell-based, human
# Method: Caki-1 renal cell carcinoma cells were treated with either control (DMSO) or various doses of Erastin, for 24 hours prior to co-culture with THP1-Dual cells for an additional 24 hours. Erastin was purchased from Selleckchem (Houston, Tex.) and dissolved in DMSO. Subsequently, the THP1 supernatants were assessed for NFKB or IRF reporter activity. Caki-1 cells were acquired from ATCC and THP1-Dual cells acquired from InvivoGen (San Diego, Calif.). Both cell types were cultured in 96-well plates for the duration of the assay. 7,500 Caki-1 cells were plated 24 hours prior to dosing with Erastin, with a final DMSO concentration of 0.5%. 24 hours post-treatment, THP1-Dual cells (25,000 cells/well) were added to the Caki-1 cells. 24 hours later, 30 μl of supernatant was mixed with either 200 μl QuantiBlue (InvivoGen) or 50 μl QuantiLuc and absorbance or luminescence was recorded on a Molecular Devices plate reader. Caki-1 renal cell carcinoma cells were treated with either control (DMSO) or various doses of RSL3, for 24 hours prior to co-culture with THP1-Dual cells for an additional 24 hours. RSL3 was purchased from Selleckchem and dissolved in DMSO. Subsequently, the THP1 supernatants were assessed for NFKB or IRF reporter activity. Caki-1 cells were acquired from ATCC and THP1-Dual cells acquired from InvivoGen (San Diego, Calif.). Both cell types were cultured in 96-well plates for the duration of the assay. 7,500 Caki-1 cells were plated 24 hours prior to dosing with RSL3, with a final DMSO concentration of 0.5%. 24 hours post-treatment, THP1-Dual cells (25,000 cells/well) were added to the Caki-1 cells. 24 hours later, 30 μl of supernatant was mixed with either 200 μl QuantiBlue (InvivoGen, San Diego, Calif.) or 50 μl QuantiLuc and absorbance or luminescence was recorded on a Molecular Devices plate reader. […] Subsequently, the THP1 supernatant was assessed for NFKB reporter activity. Caki-1 cells were acquired from ATCC and THP1-Dual cells acquired from InvivoGen (San Diego, Calif.). Both cell types were cultured in 96-well plates for the duration of the assay.
compound,measurement,setting,value
COC(=O)c1ccc([C@H]2c3[nH]c4ccccc4c3C[C@H](C(=O)OC)N2C(=O)CCl)cc1 [RSL3],NFKB signaling in THP1 monocytes,"Caki-1 cells treated 24 hours, co-culture 24 hours, vs DMSO, FIG. 3B, 4B",elicited NFKB signaling in THP1 monocytes
same,"NFKB activity in THP1 cells, dose dependence","Caki-1 cells treated with RSL3 or ML162, FIG. 13B, 14B",increased NFKB activity in THP1 cells in a dose dependent manner
